From patent publication US5232684A, “Labelled resiniferatoxin, compositions thereof, and methods for using the same” (priority 1990, dated 1993)
pKd: −log10 of the molar value. Like-named read-outs stand apart in the source and are kept apart here.

Tests used:
[1] = molecular target: T1, capsaicin receptor (rat DRG membranes) (Rattus norvegicus, UniProt O35433); assay: biochemical; assay type: binding
T1 construct: membrane preparations from dorsal root ganglia (DRG) of female Sprague-Dawley rats; from tissue; host or cells: dorsal root ganglia of female Sprague-Dawley rats
T1 sequence (O35433 whole entry): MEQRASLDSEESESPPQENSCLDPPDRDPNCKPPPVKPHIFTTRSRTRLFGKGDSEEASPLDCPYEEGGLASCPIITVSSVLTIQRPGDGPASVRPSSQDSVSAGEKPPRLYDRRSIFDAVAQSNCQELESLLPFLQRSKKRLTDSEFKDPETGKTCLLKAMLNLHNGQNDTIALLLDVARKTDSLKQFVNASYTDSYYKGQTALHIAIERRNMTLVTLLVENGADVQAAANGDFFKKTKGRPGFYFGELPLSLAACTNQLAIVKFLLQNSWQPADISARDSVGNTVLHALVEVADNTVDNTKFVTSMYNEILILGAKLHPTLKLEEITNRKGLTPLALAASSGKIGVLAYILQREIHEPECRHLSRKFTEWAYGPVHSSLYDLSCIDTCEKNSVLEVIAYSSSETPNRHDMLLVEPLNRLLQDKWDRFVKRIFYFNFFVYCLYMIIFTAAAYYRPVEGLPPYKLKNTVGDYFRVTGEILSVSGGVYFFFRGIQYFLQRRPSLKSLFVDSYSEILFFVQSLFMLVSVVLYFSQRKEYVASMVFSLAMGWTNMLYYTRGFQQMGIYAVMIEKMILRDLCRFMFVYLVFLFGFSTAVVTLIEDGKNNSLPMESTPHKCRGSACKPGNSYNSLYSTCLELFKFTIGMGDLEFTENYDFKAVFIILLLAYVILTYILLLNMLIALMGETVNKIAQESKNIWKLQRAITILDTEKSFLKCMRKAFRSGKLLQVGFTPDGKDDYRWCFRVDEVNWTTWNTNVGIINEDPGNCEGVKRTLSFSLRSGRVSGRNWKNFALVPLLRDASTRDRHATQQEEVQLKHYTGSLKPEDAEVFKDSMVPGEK
Procedure: Membrane preparations are obtained from the DRG and Gasser ganglia of female Sprague-Dawley rats (250-300 g); animals are sacrificed by decapitation under ether anesthesia, the ganglia removed and collected into ice-cold disrupting buffer (5 mM KCl, 5.8 mM NaCl, 2 mM MgCl2, 12 mM glucose, 137 mM sucrose, 10 mM HEPES, 5 mM DTT, 2 mM EGTA, pH 7.4). After homogenization with the aid of a Polytron tissue homogenizer, samples are filtered over surgical gauze and then washed twice with the same buffer and stored at -70° C. Particulate fractions are obtained from other rat neural tissues (cerebellum, spinal cord, preoptic region, striatum, substantia nigra) and from DRG of pigs (Mt. Airy Locker Co., Mt. Airy, MD), sheep, cows (kindly provided by Dr. Solomon, USDA, Beltsville, MD), and chickens (Truslow Farms, Chesterton, MD) by a similar procedure.
The binding assays are carried out in a volume of 250 ul, containing assay buffer (same as the disrupting buffer but omitting DTT and EGTA and including 0.75 mM CaCl2), 26-30 ug of membrane protein and 0.25 mg/ml bovine serum albumin. […] Tubes are kept on ice while the additions are made. The assay mixture is incubated for 10 min at 37° C.; it is then cooled on ice. 150 ul of the mixture is pipetted onto Whatman GF/C or GF/F glass fiber filters presoaked with 10 mg/ml bovine serum albumin in 20 mM Tris-Cl (pH 7.4) and filtered immediately. An aliquot of 50 ul of the mixture is removed to determine total radioactivity. The filters are washed with 100 ml of ice-cold 20 mM Tris-Cl, pH 7 4, containing 0.1 mg/ml bovine serum albumin, and the bound radioactivity is determined by scintillation counting. Non-specific binding is determined in the presence of 100-1000 nM non-radioactive RTX.
Binding data from saturation experiments using increasing concentrations of hot ligand are analyzed using the collection of computer programs described by McPherson (McPherson, G.A., Analysis of radioligand binding experiments: a collection of computer programs for the IBM PC, J.Pharmacol.Methods, 14 (1985) 213-228).
Scatchard and Hill transformations are performed by the Equilibrium Binding Data Analysis program referred to as EBDA. Data are further analyzed by the curvilinear regression program LIGAND (Munson, R.J. and Rodbard, D., LIGAND: a versatile computerized approach for characterization of ligand-binding systems, Anal.Biochem, 107 (1980) 220-239).
RTX binding is also analyzed in the presence of a fixed, low (60 pM or 300 pM) concentration of [^3 H]RTX and increasing concentrations of non-radioactive RTX or other ligand. […] The Ki value for RTX is calculated from the relationship Ki =ID50 -L; the Ki values for other ligands are calculated from the general form of the equation (Cheng, Y.C. and Prusoff, W.H., Relation between the inhibition constant (Ki) and the concentration of inhibitor which causes 50 per cent inhibition (I50) of an enzymatic reaction, Biochem. Pharmacol., 22 (1973) 3099-3108) Ki =IC50 /(1+L/Kd) where L=concentration of labelled ligand and Kd =dissociation constant of radioactive ligand as determined in the saturation experiments using variable concentrations of hot ligand. Comparison of the quality of fit using single and multiple site competition models is performed by the LIGAND program.
[^3 H]RTX binding is examined using membrane preparations from dorsal root ganglia (DRG) of female Sprague-Dawley rats.

[2] = tested on: capsaicin receptor (sheep DRG); assay: [^3H]RTX binding to sheep DRG membranes; details: DRG from sheep
rat cerebellum = assay: [^3H]RTX binding to rat cerebellum
CD-1 mice = assay: Induction of hypothermia in CD-1 mice; assay type: in vivo, mouse; details: 10^-5 g/kg s.c.
From the text: (§1) [^3 H]RTX (37 Ci/mmol) is synthesized by esterification of resiniferonol 9,13,14-orthophenylacetate (Chemicals for Cancer Research, Inc., Chaska, MN) at the C20 position with [^3 H]homovanillic acid (Chemical Synthesis and Analysis Laboratory, NCI-FCRF, Frederick, MD). The labelled compound is purified on HPLC and cochromatographed with authentic RTX (Chemicals for Cancer Research, Inc., Chaska, MN). The biological activity of [^3 H]RTX is confirmed in 2 assays: induction of hypothermia in CD-1 mice (10^-5 g/kg s.c.) and induction of ear edema in Sprague-Dawley rats (2×10^-7 g/ear).

Sprague-Dawley rats = assay: Induction of ear edema in Sprague-Dawley rats; assay type: in vivo, rat; details: 2×10^-7 g/ear
From the text: as §1

substantia nigra = assay: [^3H]RTX binding to rat substantia nigra
Procedure: Membrane preparations are obtained from the DRG and Gasser ganglia of female Sprague-Dawley rats (250-300 g); animals are sacrificed by decapitation under ether anesthesia, the ganglia removed and collected into ice-cold disrupting buffer (5 mM KCl, 5.8 mM NaCl, 2 mM MgCl2, 12 mM glucose, 137 mM sucrose, 10 mM HEPES, 5 mM DTT, 2 mM EGTA, pH 7.4). After homogenization with the aid of a Polytron tissue homogenizer, samples are filtered over surgical gauze and then washed twice with the same buffer and stored at -70° C. […]
The binding assays are carried out in a volume of 250 ul, containing assay buffer (same as the disrupting buffer but omitting DTT and EGTA and including 0.75 mM CaCl2), 26-30 ug of membrane protein and 0.25 mg/ml bovine serum albumin. […] An aliquot of 50 ul of the mixture is removed to determine total radioactivity. The filters are washed with 100 ml of ice-cold 20 mM Tris-Cl, pH 7 4, containing 0.1 mg/ml bovine serum albumin, and the bound radioactivity is determined by scintillation counting. Non-specific binding is determined in the presence of 100-1000 nM non-radioactive RTX. […]

In the case of `C=C(C)[C@]12C[C@@H](C)[C@@]34O[C@](Cc5ccccc5)(O[C@@H]1[C@@H]3C=C(COC(=O)Cc1ccc(O)c(OC)c1)C[C@]1(O)C(=O)C(C)=C[C@@H]41)O2` [[^3 H]RTX, [^3 H]resiniferatoxin], the “Bmax (summary)” value ([1]; rat DRG) was 160 fmol/mg, the “specific binding to the DRG membranes” value ([1]; rat DRG) was “specific, saturable binding” and the Hill coefficient ([1]; rat DRG membranes) was 0.96. For the same molecule, the “specific binding of the total at the Kd” value ([1]; rat DRG membranes, at the Kd) was “approximately 50%”, the “Bmax (Scatchard analysis)” value ([1]; rat DRG membranes, 3 separate determinations) was 150 fmol/mg protein and the pKd ([1]; rat DRG membranes, data cumulated from 3 separate determinations, read-out: Kd (Scatchard analysis)) was 9.52. For the same molecule, the “Bmax (curvilinear analysis, LIGAND)” value ([1]; rat DRG membranes, final parameter estimate) was 160 fmol/mg protein, the pKd ([1]; rat DRG membranes, one site model, final parameter estimate, read-out: Kd (curvilinear analysis, LIGAND)) was 9.57 and the pKd ([1]; rat DRG, read-out: Kd (summary)) was 9.57. For the same molecule, the “specific binding” value [2] was “Specific binding is observed”, the “specific binding” value (rat cerebellum) was “no specific binding” and the “biological activity: induction of hypothermia” value (CD-1 mice) was “confirmed”. For the same molecule, the “biological activity: induction of ear edema” value (Sprague-Dawley rats) was “confirmed” and the “detection of [^3H]RTX binding” value (substantia nigra) was “very difficult”.
